Reference: patent US20180153995A1, “USE OF ANTIMICROBIAL POLYMERS FOR RE-SENSITIZATION OF MICROORGANISMS UPON EMERGENCE OF RESISTANCE TO ANTI-MICROBIAL AGENTS” (Technion Research & Development Foundation Limited, priority 2008, published 2018)
Converted amounts (≈) assume the structure as drawn. “And” between values parts separate entries of the source, which are not always exact repeats. Identical values can stand only once. Like-named read-outs stand apart in the source and are kept apart here.

Legend:
MRSA 15852 = type: cell-based, Staphylococcus aureus; conditions: S. aureus 15852
Summary of the method: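 Checkerboard combination testing against MRSA 15852; FIC index = A/MICA + B/MICB, with A and B the MICs of each agent in combination and MICA, MICB the MICs alone. Index <0.5 read as clear re-sensitizing, 0.5–4 as marginal or null, >4 as antagonism.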

ATCC 25923 = test: microbe, parasite or virus in culture; type: cell-based, Staphylococcus aureus; conditions: Staphylococcus aureus, ATCC25923; read-out: MIC
Experimental: MICs were determined by microdilution susceptibility testing in 96-well plates (by Nunc) using inocula of 10^5 bacteria per ml. Cell populations were evaluated by optical density measurements at 620 nm and were calibrated against a set of standards. Hundred (100) μl of a bacterial suspension were added to 100 μl of culture medium (control) or to 100 μl of culture medium containing various polymer concentrations in 2-fold serial dilutions. Inhibition of proliferation was determined by optical density measurements at 620 nm after an incubation period of 24 hours at 37° C.

S. aureus 15877 = test: Antibiotic MIC by microdilution with or without sub-MIC polymer; type: cell-based, Staphylococcus aureus
S. aureus 17314 = test: as above; type: cell-based, Staphylococcus aureus
E. coli 16329 = type: cell-based, Escherichia coli
Summary of the method: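 Bacterial suspensions (100 μl) were added to 100 μl of culture medium carrying 2-fold serially diluted antibiotic together with a fraction of the polymer's MIC, or to plain medium as control. Plates were incubated 24 hours at 37° C, and proliferation was read at 620 nm against calibration standards. Starting inoculum was 10^5 bacteria per ml.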

P. aeruginosa 8732 = test: Antibiotic MIC by microdilution with or without sub-MIC polymer; type: cell-based, Pseudomonas aeruginosa
E. coli CI14213 = type: cell-based, Escherichia coli
Summary of the method: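 MICs were determined by broth microdilution with an inoculum of 10^5 bacteria per ml, the bacterial suspension being added to medium alone or to medium with 2-fold serial dilutions of polymer. After 24 h at 37 °C, inhibition of proliferation was read as optical density at 620 nm.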

E. coli AG100 = test: Antibiotic MIC with or without sub-MIC polymer (Tables 20, 21); type: cell-based, Escherichia coli
E. coli AG100/ks = test: as above; type: cell-based, Escherichia coli
S. aureus ATCC 29213 [1] = test: microbe, parasite or virus in culture; conditions: Staphylococcus aureus, ATCC29213, read-out: Oxacillin's MIC
Experimental: In parallel, MIC evolution was compared concomitantly for each new sub-culture, using bacteria harvested from control wells (wells cultured without antimicrobial agent from the previous sub-culture). The relative MIC was calculated for each experiment from the ratio of MIC obtained for subculture “n” to that obtained for first-time exposure.
The relative MIC was determined as the normalized ratio of the MIC obtained for a given subculture to the MIC of the control.
MICs were determined by microdilution susceptibility testing in 96-well plates using inocula of 10^5 bacteria per ml. Cell populations were evaluated by optical density measurements at 600 nm and were calibrated against a set of standards.
In parallel, MIC evolution was compared concomitantly for each new generation, using bacteria harvested from control wells (wells cultured without antimicrobial agent from the previous generation). The relative MIC was calculated for each experiment from the ratio of MIC obtained for subculture “n” to that obtained for first-time exposure. […] MICs were determined by microdilution susceptibility testing in 96-well plates. Cell populations were evaluated by optical density measurements at 600 nm and were calibrated against a set of standards.

S. aureus ATCC 29213 [2] = conditions: as determined by the Clinical and Laboratory Standard Institute; cited from earlier work

For `Cc1onc(-c2ccccc2)c1C(=O)N[C@@H]1C(=O)N2[C@@H]1SC(C)(C)[C@@H]2C(=O)O` [Oxacillin, oxacillin], the “Antibiotic MIC” value (MRSA 15852; +¼ MIC (1.6 μM) C12KKNC12KNH2) was 256 µg/mL, the “Antibiotic MIC” value (MRSA 15852; +½ MIC (3.12 μM) C12KKNC12KNH2) was 256 µg/mL and the “Antibiotic MIC” value (MRSA 15852; +⅓ MIC (2.1 μM) C12KKNC12KNH2) was 256 µg/mL. For the same molecule, the “Antibiotic MIC” value (MRSA 15852; no polymer (None), Table 11) was 256 µg/mL, the MIC (ATCC 25923) was 0.17 µg/mL (≈ 0.423 µM) and the “Antibiotic MIC” value (S. aureus 15877; +½ MIC (3.12 μM) C12(5-ene)KKNC12KNH2) was 16 µg/mL. For the same molecule, the “Antibiotic MIC” value (S. aureus 15877; +⅓ MIC (2.1 μM) C12(5-ene)KKNC12KNH2) was 32 µg/mL, the “Antibiotic MIC” value (S. aureus 17314) was 0.125 to 0.25 µg/mL and the “Antibiotic MIC” value (S. aureus 17314; S. aureus 17314, +¼ MIC (1.6 μM) C12K(KNC12K)2NH2) was 0.125 to 0.25 µg/mL. For the same molecule, the “Antibiotic MIC” value (S. aureus 17314; S. aureus 17314, +¼ MIC (1.6 μM) C12KKNC12KNH2) was 0.25 µg/mL, the “Antibiotic MIC” value (S. aureus 17314; S. aureus 17314, +¼ MIC (1.6 μM) C16(9-ene)KKNC12KNH2) was 0.25 µg/mL and the “Antibiotic MIC” value (S. aureus 17314; S. aureus 17314, +½ MIC (3.12 μM) C12K(KNC12K)2NH2) was 0.125 to 0.25 µg/mL. The “Antibiotic MIC” value (S. aureus 17314; S. aureus 17314, +½ MIC (3.12 μM) C12KKNC12KNH2) was 0.25 µg/mL, the “Antibiotic MIC” value (S. aureus 17314; S. aureus 17314, +½ MIC (3.12 μM) C16(9-ene)KKNC12KNH2) was 0.06 µg/mL and the “Antibiotic MIC” value (S. aureus 17314; S. aureus 17314, +⅓ MIC (2.1 μM) C12K(KNC12K)2NH2) was 0.125 to 0.25 µg/mL. For the same molecule, the “Antibiotic MIC” value (S. aureus 17314; S. aureus 17314, +⅓ MIC (2.1 μM) C12KKNC12KNH2) was 0.25 µg/mL, the “Antibiotic MIC” value (S. aureus 17314; S. aureus 17314, +⅓ MIC (2.1 μM) C16(9-ene)KKNC12KNH2) was 0.25 µg/mL and the “Antibiotic MIC” value (S. aureus 17314; S. aureus 17314, no polymer (None), Table 9) was 0.25 µg/mL. For the same molecule, the “Antibiotic MIC” value (S. aureus 17314; S. aureus 17314, no polymer (None), Table 10) was 0.25 to 0.5 µg/mL, the “Antibiotic MIC” value (S. aureus 17314; S. aureus 17314, no polymer (None), Table 11) was 0.25 µg/mL and the “Antibiotic MIC” value (S. aureus 17314; S. aureus 17314, no polymer (None), Table 12) was 0.25 µg/mL. The “Antibiotic MIC” value (E. coli 16329) was over 512 µg/mL, the “Antibiotic MIC” value (E. coli 16329; E. coli 16329, no polymer (None), Table 10) was over 512 µg/mL and the “Antibiotic MIC” value (E. coli 16329; E. coli U-16329, +¼ MIC C12K(NC8K)5NH2) was over 512 µg/mL. The “Antibiotic MIC” value (E. coli 16329; E. coli U-16329, +½ MIC C12K(NC8K)5NH2) was over 512 µg/mL, the “Antibiotic MIC” value (E. coli 16329; E. coli U-16329, +⅓ MIC C12K(NC8K)5NH2) was over 512 µg/mL and the “Antibiotic MIC, None” value (E. coli 16329; E. coli U-16329, antibiotic alone (Table 15)) was over 512 µg/mL. The “Antibiotic MIC” value (E. coli 16329; E. coli U-16329, no polymer (None), Table 14) was over 512 µg/mL, the “Antibiotic MIC in presence of C12K(NC8K)7NH2 (SEQ ID NO: 4), +¼ MIC” value (E. coli 16329; E. coli U-16329, polymer at ¼ of its MIC) was over 512 µg/mL and the “Antibiotic MIC in presence of C12K(NC8K)7NH2 (SEQ ID NO: 4), +½ MIC” value (“Antibiotic MIC … (SEQ ID NO: 4), +½ MIC” below) (E. coli 16329; E. coli U-16329, polymer at ½ of its MIC) was 512 µg/mL. The “Antibiotic MIC in presence of C12K(NC8K)7NH2 (SEQ ID NO: 4), +⅓ MIC” value (E. coli 16329; E. coli U-16329, polymer at ⅓ of its MIC) was over 512 µg/mL, the “Antibiotic MIC” value (P. aeruginosa 8732) was over 512 µg/mL and the “Antibiotic MIC” value (P. aeruginosa 8732; P. aeruginosa 8732, +½ MIC (3.12 μM) C16(9-ene)KKNC12KNH2) was over 512 µg/mL. For the same molecule, the “Antibiotic MIC” value (P. aeruginosa 8732; P. aeruginosa 8732, +⅓ MIC (2.1 μM) C16(9-ene)KKNC12KNH2) was over 512 µg/mL, the “Antibiotic MIC” value (P. aeruginosa 8732; P. aeruginosa 8732, no polymer (None), Table 10) was over 512 µg/mL and the “activity of oxacillin alone” value (E. coli CI14213; E. coli CI14213, 24 hours incubation) was “inactive”. The “concentration up to which E. coli is insensitive to oxacillin” value (E. coli CI14213; E. coli, oxacillin alone) was over 512 µg/mL, the “Antibiotic MIC, None” value (E. coli AG100; antibiotic alone (Table 20)) was 512 µg/mL and the “Antibiotic MIC, None” value (E. coli AG100; antibiotic alone (Table 21)) was 512 µg/mL. For the same molecule, the “Antibiotic MIC in presence of C12K(NC8K)5NH2 (SEQ ID NO: 3), +¼ MIC” value (E. coli AG100; polymer at ¼ of its MIC) was 256 µg/mL, the “Antibiotic MIC in presence of C12K(NC8K)5NH2 (SEQ ID NO: 3), +½ MIC” value (E. coli AG100; polymer at ½ of its MIC) was 32 to 64 µg/mL and the “Antibiotic MIC … (SEQ ID NO: 4), +½ MIC” value (E. coli AG100; polymer at ½ of its MIC) was 32 to 64 µg/mL. The “Antibiotic MIC, None” value (E. coli AG100/ks; antibiotic alone (Table 20)) was over 512 µg/mL, the “Antibiotic MIC, None” value (E. coli AG100/ks; antibiotic alone (Table 21)) was over 512 µg/mL and the “Antibiotic MIC in presence of C12K(NC8K)5NH2 (SEQ ID NO: 3), +¼ MIC” value (E. coli AG100/ks; polymer at ¼ of its MIC) was over 512 µg/mL. For the same molecule, the “Antibiotic MIC in presence of C12K(NC8K)7NH2 (SEQ ID NO: 4), +¼ MIC” value (E. coli AG100/ks; polymer at ¼ of its MIC) was over 512 µg/mL, the “Antibiotic MIC in presence of C12K(NC8K)5NH2 (SEQ ID NO: 3), +½ MIC” value (E. coli AG100/ks; polymer at ½ of its MIC) was over 512 µg/mL and the “Antibiotic MIC … (SEQ ID NO: 4), +½ MIC” value (E. coli AG100/ks; polymer at ½ of its MIC) was over 512 µg/mL. The “Antibiotic MIC in presence of C12K(NC8K)5NH2 (SEQ ID NO: 3), +⅓ MIC” value (E. coli AG100/ks; polymer at ⅓ of its MIC) was over 512 µg/mL, the “Antibiotic MIC in presence of C12K(NC8K)7NH2 (SEQ ID NO: 4), +⅓ MIC” value (E. coli AG100/ks; polymer at ⅓ of its MIC) was over 512 µg/mL and the MIC (S. aureus ATCC 29213 [1]) was 0.28 µM and 0.125 µg/mL. For the same molecule, the “Oxacillin's MIC per CLSI M100-S15” value (S. aureus ATCC 29213 [2]) was 0.125 to 0.5 µg/mL.
